Data published in BigSolDB 2.1.

O=C(N[C@@H](Cc1c[nH]c2ccccc12)C(=O)O)OCc1ccccc1
solubility (mole fraction)
Conditions | 283.15 K | 288.15 K | 293.15 K | 298.15 K | 303.15 K | 308.15 K | 313.15 K | 318.15 K | 323.15 K
in 2-butanone | 0.133 | 0.143 | 0.152 | 0.161 | 0.173 | 0.182 | 0.196 | 0.205 | 0.221
in acetone | 0.204 | 0.23 | 0.264 | 0.306 | 0.358 | 0.409 | 0.458 | 0.505 | 0.557
in acetonitrile | 0.0197 | 0.025 | 0.0305 | 0.0428 | 0.06 | 0.0766 | 0.0967 | 0.117 | 0.134
in ethanol | 0.0567 | 0.0689 | 0.0826 | 0.1 | 0.124 | 0.142 | 0.164 | 0.189 | 0.208
in ethyl acetate | 0.0484 | 0.0559 | 0.0629 | 0.0707 | 0.0794 | 0.0906 | 0.103 | 0.118 | 0.133
in isobutanol | 0.00972 | 0.0123 | 0.0177 | 0.0245 | 0.0302 | 0.0379 | 0.045 | 0.0547 | 0.0692
in isopropanol | 0.0299 | 0.0351 | 0.0439 | 0.0536 | 0.0656 | 0.08 | 0.0917 | 0.109 | 0.125
in methyl acetate | 0.0663 | 0.0737 | 0.0836 | 0.0968 | 0.112 | 0.125 | 0.141 | 0.162 | 0.182
in n-butanol | 0.0231 | 0.0278 | 0.0334 | 0.0403 | 0.0526 | 0.0666 | 0.0784 | 0.0941 | 0.114
in n-pentanol | 0.0181 | 0.0209 | 0.0252 | 0.0322 | 0.0393 | 0.0458 | 0.0536 | 0.0631 | 0.0717
in n-propanol | 0.0283 | 0.0389 | 0.0502 | 0.064 | 0.0763 | 0.0881 | 0.104 | 0.123 | 0.141
in water | 4.06e-05 | 5.32e-05 | 6.49e-05 | 7.79e-05 | 8.87e-05 | 9.81e-05 | 0.000109 | 0.000118 | 0.000125
